Here are results for one compound from patent US20230285374A1, “THERAPEUTIC METHODS USING VADADUSTAT” (Akebia Therapeutics, Inc., priority 2019, published 2023).

In series [1] the test system is subjects receiving hemodialysis, previously maintained on epoetin alfa. The series can be described thus: Open-label Phase 2 trial in subjects receiving hemodialysis previously maintained on epoetin alfa.
Experimental: The primary endpoint was mean hemoglobin (Hb) change from pre-baseline average to midtrial (Weeks 7-8) and end-of trial (Weeks 15-16) and was analyzed using available data (no imputation).
Series [2] deals with anemic DD-CKD patients with prevalent dialysis and established ESA treatment. Put plainly: Phase 3 Prevalent DD-CKD (Conversion) trial, vadadustat vs darbepoetin alfa. The class given is in vivo, human. The note with it: for Ferritin, mean / Hepcidin, mean / TSAT, mean: Prevalent trial. As for the experimental part:
Two randomized Phase 3, open-label, sponsor-blind, active-controlled non-inferiority (NI) trials were conducted in anemic DD-CKD patients with incident dialysis and limited ESA exposure (Correction/Conversion trial) and with prevalent dialysis and established ESA treatment (Conversion trial). The primary safety endpoint was prespecified as the time to first major adverse cardiovascular event (MACE) (all-cause mortality, non-fatal MI, or non-fatal stroke) pooled across the two trials. Primary and key secondary efficacy endpoints were mean change in Hb from baseline [BL] to wks 24-36 and to wks 40-52 between two treatment arms, respectively.
Phase 3, randomized, open-label, active-controlled study of vadadustat vs darbepoetin alfa for the maintenance treatment of anemia after conversion from ESA therapy.
Following a Screening period of up to 8 weeks (56 days), subjects who met all inclusion and none of the exclusion criteria were randomized 1:1 to vadadustat or darbepoetin alfa.
Randomization were stratified by: • Geographic region (United States [US] versus European Union [EU] versus Rest of World [ROW]) • New York Heart Association congestive heart failure (CHF) Class 0 (no CHF) or I versus II or III. • Study entry Hb (<10.0 versus ≥10.0 g/dL).
Following randomization, there were 3 periods during the study: • Conversion and Maintenance Period (Weeks 0 to 52): conversion to study medication for maintaining Hb (Weeks 0-23), primary efficacy evaluation (Weeks 24-36), and secondary efficacy evaluation (Weeks 40-52). • Long-term Treatment Period (Weeks 53 to End of Treatment [EOT]): continued study medication to assess long-term safety. • Follow-up (EOT+4 weeks): post-treatment visit (either in person or via telephone) for safety.
Inclusion Criteria: • ≥18 years of age. • Receiving chronic maintenance dialysis (either peritoneal or hemodialysis) for end-stage kidney disease for at least 12 weeks prior to Screening. • Currently maintained on ESA therapy, with a dose received within 6 weeks prior to or during Screening. • Mean screening Hb between 8.0 and 11.0 g/dL (inclusive) in the US and between 9.0 and 12.0 g/dL (inclusive) outside of the US, as determined by the average of 2 Hb values measured by the central laboratory during Screening. • Serum ferritin ≥100 ng/mL and transferrin saturation (TSAT) 20% during Screening. • Folate and vitamin B12 measurements lower limit of normal during Screening. • Understands the procedures and requirements of the study and provides written informed consent and authorization for protected health information disclosure.
Exclusion Criteria: • Anemia due to a cause other than CKD or subjects with active bleeding or recent blood loss. • History of sickle cell disease, myelodysplastic syndromes, bone marrow fibrosis, hematologic malignancy, myeloma, hemolytic anemia, thalassemia, or pure red cell aplasia. • Red blood cell (RBC) transfusion within 8 weeks prior to randomization. • Anticipated to recover adequate kidney function to no longer require dialysis. • Aspartate aminotransferase (AST)/serum glutamic oxaloacetic transaminase (SGOT), alanine aminotransferase (ALT)/serum glutamic pyruvic transaminase (SGPT), or total bilirubin >2.0×upper limit of normal (ULN) during Screening. […]

In the case of `O=C(O)CNC(=O)c1ncc(-c2cccc(Cl)c2)cc1O` [Compound 1, Vadadustat], the “subjects with an Hb excursion>13 g/dL” value in series [1] (all cohorts) is given as “one”. Further, the “mean change in Hb from pre-baseline average” value in series [1] (all dose cohorts (300 mg QD, 450 mg QD, 450 mg TIW), Weeks 7-8 and 15-16) is reported as “no statistically significant mean change”. Moreover, the “serious AEs attributed to study drug” value in series [1] (human, in vivo) is recorded as “No serious AEs”. Further, in series [1] (overall), the diarrhea was determined as 10.6%, the nausea stood at 11.7%, the “subjects who experienced an adverse event (AE)” value is reported as 83% and the vomiting was 9.6%. Moreover, in series [2] (Baseline), the “Ferritin, mean” value was 846.78 ng/mL; the “Hepcidin, mean” value is listed as 193.86 ng/mL; the “TSAT, mean” value stood at 38.06%. Moreover, in series [2] (Weeks 24-36), the “Ferritin, mean” value is 801.93 ng/mL; the “Hepcidin, mean” value came to 146.95 ng/mL; the “TSAT, mean” value was 34.77%. In addition, in series [2] (Weeks 40-52), the “Ferritin, mean” value was 787.27 ng/mL; the “Hepcidin, mean” value is recorded as 137.41 ng/mL; the “TSAT, mean” value was 34.11%. Also, in series [2] (weeks 24-36), the “proportion of patients requiring RBC transfusions” value amounted to 2.0% and the “proportion of patients with an average hemoglobin value within the geography-specific target range” value was 49.2%. In addition, in series [2] (weeks 24 to 36), the “mean (SEM) change from baseline in hemoglobin” value is 0.19 (0.032) g/dL and the “mean difference between groups (vadadustat vs darbepoetin alfa) in change from baseline in hemoglobin” value was −0.17 (0.033) g/dL. Moreover, in series [2] (weeks 40-52), the “proportion of patients requiring RBC transfusions” value is reported as 3.7% and the “proportion of patients with an average hemoglobin value within the geography-specific target range” value worked out at 44.3%. Besides, in series [2] (weeks 40 to 52), the “mean change from baseline in hemoglobin” value is reported as 0.23 (0.035) g/dL and the “mean difference between groups (vadadustat vs darbepoetin alfa) in change from baseline in hemoglobin” value is reported as −0.18 (0.035) g/dL.
